This note sets out measurements from article PMC8533391 (2021).

SMILES strings stand for the structures.

In general, ΔTm refers to the change in melting temperature against a reference sample.

For this assay, the system named is d(GTTAATCGCTGG) double-stranded DNA 12-oligomer (DNA, duplex) GTTAATCGCTGG/CCAGCGATTAAC
In words: UV melting at 260 nm. The following applies: Na+ (0.05 mM NaOH), 10 μM compound, 2.5 μM DNA, cacodylate, pH 7.2.

For the compound `C(=N\[C@H]1CC[C@H](/N=C/c2nccs2)CC1)/c1nccs1.C(=N\[C@H]1CC[C@H](/N=C/c2nccs2)CC1)/c1nccs1.[Ag+].[Ag+]`, under “derived from two Tm (46.2 ± 0.8, free 48.3 ± 0.3)”, the thermal shift (ΔTm) is -2.1 °C. On to `C(=N\[C@H]1CC[C@H](/N=C/c2nccs2)CC1)/c1nccs1`, for which the ΔTm (derived from two Tm (47.4 ± 0.6, free 48.3 ± 0.3)) is -0.9 °C.
